Reference: ChEMBL document CHEMBL1201862, “PubChem BioAssay data set” (2004)
Values joined by “and” are separate entries in the source; they are usually repeats but may differ in a detail not shown here. Identical values can stand only once. Active and inactive are the calls of the source.

Columns and labels:
[1] = disruptors of CAL PDZ reporter peptide binding – biochemical, fluorescence polarization, untagged CAL PDZ, dry powder, dose response (AID 602255); type: functional
[2] = target: Cystic fibrosis transmembrane conductance regulator/Golgi-associated PDZ and coiled-coil motif-containing protein (Homo sapiens, UniProt P13569+Q9HD26); test: disruption of CAL PDZ–reporter peptide interaction – biochemical, fluorescence polarization, Cer-tagged CAL PDZ, dry powder, dose response (AID 602253); type: functional
[3] = target: Eukaryotic translation initiation factor 4E (Mus musculus, UniProt P63073); test: blockers of eIF4G binding by eIF4E – biochemical, TR-FRET, dose response (AID 855); type: functional;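 note: potency for disrupting eIF4E binding to eIF4GI seen as loss of FRET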
Chain of Eukaryotic translation initiation factor 4E (P63073 whole entry): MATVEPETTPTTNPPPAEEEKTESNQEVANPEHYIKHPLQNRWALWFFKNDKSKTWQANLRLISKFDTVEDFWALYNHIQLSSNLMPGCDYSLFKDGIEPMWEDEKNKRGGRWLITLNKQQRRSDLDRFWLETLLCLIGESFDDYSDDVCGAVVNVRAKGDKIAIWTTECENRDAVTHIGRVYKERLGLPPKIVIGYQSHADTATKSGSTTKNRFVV

Hexokinase HKDC1 [4] = target: T1, Hexokinase HKDC1 (Homo sapiens, UniProt Q2TB90); test: inhibition of HKDC1 glucose phosphorylation – biochemical, W721R variant, dose response (AID 504729); type: functional
T1 sequence (Q2TB90 whole entry): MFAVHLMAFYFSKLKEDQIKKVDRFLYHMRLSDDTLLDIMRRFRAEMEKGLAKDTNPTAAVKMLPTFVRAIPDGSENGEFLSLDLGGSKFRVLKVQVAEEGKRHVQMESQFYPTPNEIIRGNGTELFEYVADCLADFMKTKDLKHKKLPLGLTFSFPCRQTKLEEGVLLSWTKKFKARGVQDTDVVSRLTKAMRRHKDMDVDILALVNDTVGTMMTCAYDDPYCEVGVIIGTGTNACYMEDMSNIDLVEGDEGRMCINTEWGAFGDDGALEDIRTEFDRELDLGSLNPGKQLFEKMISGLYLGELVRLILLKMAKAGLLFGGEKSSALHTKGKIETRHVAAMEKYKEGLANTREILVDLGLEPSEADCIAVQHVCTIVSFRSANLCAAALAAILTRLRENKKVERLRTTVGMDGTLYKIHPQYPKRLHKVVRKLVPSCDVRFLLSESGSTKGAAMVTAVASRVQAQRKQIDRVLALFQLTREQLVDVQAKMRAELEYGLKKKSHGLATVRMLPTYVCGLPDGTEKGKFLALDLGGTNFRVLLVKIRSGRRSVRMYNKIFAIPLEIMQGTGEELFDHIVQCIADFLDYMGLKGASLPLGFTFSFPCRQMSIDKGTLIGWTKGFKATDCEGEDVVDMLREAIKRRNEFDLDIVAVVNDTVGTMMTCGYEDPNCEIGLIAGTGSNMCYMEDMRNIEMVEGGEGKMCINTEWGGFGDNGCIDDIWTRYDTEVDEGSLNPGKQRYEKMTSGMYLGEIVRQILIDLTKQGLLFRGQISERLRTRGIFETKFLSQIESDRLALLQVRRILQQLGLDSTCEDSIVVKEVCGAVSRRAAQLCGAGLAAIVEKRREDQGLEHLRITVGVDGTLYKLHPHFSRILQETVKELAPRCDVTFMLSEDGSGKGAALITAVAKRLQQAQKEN

Hexokinase-1 [5] = target: T2, Hexokinase-1 (Homo sapiens, UniProt P19367); test: hexokinase 1 activity inhibitors, potency – biochemical, set 2, resazurin fluorescence coupled readout, selectivity assay for HKDC1 inhibitor project, SAR follow-up (AID 588356); type: functional
T2 sequence (P19367 whole entry): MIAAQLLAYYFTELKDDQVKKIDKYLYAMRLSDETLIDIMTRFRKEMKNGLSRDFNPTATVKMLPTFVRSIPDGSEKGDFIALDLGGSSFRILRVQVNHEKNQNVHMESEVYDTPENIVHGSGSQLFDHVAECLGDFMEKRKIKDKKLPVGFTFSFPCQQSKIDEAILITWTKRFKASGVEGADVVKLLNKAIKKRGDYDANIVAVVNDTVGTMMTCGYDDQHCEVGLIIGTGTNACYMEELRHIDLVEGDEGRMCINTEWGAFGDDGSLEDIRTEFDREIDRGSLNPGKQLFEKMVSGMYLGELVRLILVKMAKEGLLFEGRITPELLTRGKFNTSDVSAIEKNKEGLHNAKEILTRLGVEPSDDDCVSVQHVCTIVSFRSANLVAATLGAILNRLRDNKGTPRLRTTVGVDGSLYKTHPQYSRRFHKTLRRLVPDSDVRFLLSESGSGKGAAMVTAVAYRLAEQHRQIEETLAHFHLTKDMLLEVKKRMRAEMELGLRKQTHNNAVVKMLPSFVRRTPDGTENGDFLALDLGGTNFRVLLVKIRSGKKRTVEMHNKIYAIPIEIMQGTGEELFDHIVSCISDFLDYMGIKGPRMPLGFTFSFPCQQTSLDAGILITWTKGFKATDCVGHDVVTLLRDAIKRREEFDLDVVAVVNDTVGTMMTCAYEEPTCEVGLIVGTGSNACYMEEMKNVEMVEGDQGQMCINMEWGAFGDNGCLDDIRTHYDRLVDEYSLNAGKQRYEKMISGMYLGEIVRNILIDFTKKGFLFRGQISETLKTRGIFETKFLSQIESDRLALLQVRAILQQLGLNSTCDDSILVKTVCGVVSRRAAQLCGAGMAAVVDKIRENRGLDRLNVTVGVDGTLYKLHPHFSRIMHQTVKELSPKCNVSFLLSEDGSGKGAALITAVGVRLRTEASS

Hexokinase HKDC1 [6] = target: T1, Hexokinase HKDC1; test: SAR analysis of small molecule inhibitors of hexokinase domain containing I (HKDC1) - Set 3. [Related pubchem assays (depositor defined):AID493160, AID493190]; type: functional
Hexokinase-1 [7] = target: T2, Hexokinase-1; test: SAR analysis of small molecule inhibitors of hexokinase domain containing I (HKDC1) in the hexokinase 1 selectivity assay. [Related pubchem assays (depositor defined):AID493160, AID493190]; type: functional
Hexokinase HKDC1 [8] = target: T1, Hexokinase HKDC1; test: SAR analysis of small molecule inhibitors of hexokinase domain containing I (HKDC1). [Related pubchem assays (depositor defined):AID493160, AID493190]; type: functional
Hexokinase HKDC1 [9] = target: T1, Hexokinase HKDC1; test: analog inhibition of human HKDC1 activity – biochemical, set 2, SAR follow-up (AID 588355); type: functional
[10] = target: RNA-editing ligase 1, mitochondrial (Trypanosoma brucei brucei, UniProt P86926); test: inhibition of trypanosome RNA editing ligase – biochemical, fluorescence, Trypanosoma brucei, dose response (AID 1117295); type: functional
Cytochrome P450 1A2 = target: T3, Cytochrome P450 1A2 (Homo sapiens, UniProt P05177);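 note: PubChem cytochrome P450 panel assay, CYP1A2 panel member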
T3 sequence (P05177 whole entry): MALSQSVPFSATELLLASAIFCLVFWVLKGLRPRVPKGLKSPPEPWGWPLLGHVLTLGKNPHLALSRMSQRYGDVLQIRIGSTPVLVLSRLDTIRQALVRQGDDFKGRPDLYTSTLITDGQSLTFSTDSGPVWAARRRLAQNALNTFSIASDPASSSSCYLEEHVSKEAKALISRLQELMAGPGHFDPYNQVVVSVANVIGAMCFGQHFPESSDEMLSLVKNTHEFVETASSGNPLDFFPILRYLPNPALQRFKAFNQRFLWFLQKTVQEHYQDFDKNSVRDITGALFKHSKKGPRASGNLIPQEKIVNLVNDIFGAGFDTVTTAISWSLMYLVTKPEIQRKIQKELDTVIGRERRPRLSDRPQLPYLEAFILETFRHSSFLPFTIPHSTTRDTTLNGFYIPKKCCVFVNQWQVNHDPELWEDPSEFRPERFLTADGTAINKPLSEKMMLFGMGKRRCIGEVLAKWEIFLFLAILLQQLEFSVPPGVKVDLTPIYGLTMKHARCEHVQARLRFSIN

Cytochrome P450 2C9 = Cytochrome P450 2C9 (Homo sapiens, UniProt P11712)
Chain of Cytochrome P450 2C9 (P11712 whole entry): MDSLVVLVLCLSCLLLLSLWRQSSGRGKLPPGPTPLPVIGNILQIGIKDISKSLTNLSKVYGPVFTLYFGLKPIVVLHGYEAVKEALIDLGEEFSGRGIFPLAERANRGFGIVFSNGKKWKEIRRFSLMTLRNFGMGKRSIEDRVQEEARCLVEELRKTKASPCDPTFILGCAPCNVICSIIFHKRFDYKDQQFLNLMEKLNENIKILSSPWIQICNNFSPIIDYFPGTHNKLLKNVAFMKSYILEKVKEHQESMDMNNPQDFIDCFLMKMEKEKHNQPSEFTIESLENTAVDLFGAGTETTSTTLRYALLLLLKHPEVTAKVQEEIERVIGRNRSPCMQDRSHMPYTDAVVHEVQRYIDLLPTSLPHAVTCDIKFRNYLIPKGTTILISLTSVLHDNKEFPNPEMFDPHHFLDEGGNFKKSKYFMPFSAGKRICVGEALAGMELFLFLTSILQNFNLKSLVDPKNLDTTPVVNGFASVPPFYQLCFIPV

[11] = target: Serine/threonine-protein kinase pim-1 (Homo sapiens, UniProt P11309); type: functional
Chain of Serine/threonine-protein kinase pim-1 (P11309 whole entry): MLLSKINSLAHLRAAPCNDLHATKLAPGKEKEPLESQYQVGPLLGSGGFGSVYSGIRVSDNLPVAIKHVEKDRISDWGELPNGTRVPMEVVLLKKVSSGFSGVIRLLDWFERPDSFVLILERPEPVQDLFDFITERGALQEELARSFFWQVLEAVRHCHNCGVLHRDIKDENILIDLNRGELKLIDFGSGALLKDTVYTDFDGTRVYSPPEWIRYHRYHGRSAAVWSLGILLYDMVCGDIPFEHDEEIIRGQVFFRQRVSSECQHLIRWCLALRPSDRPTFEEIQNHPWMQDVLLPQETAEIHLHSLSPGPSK

[12] = target: Mitogen-activated protein kinase kinase kinase kinase 4 (Homo sapiens, UniProt O95819); type: functional
Chain of Mitogen-activated protein kinase kinase kinase kinase 4 (O95819 whole entry): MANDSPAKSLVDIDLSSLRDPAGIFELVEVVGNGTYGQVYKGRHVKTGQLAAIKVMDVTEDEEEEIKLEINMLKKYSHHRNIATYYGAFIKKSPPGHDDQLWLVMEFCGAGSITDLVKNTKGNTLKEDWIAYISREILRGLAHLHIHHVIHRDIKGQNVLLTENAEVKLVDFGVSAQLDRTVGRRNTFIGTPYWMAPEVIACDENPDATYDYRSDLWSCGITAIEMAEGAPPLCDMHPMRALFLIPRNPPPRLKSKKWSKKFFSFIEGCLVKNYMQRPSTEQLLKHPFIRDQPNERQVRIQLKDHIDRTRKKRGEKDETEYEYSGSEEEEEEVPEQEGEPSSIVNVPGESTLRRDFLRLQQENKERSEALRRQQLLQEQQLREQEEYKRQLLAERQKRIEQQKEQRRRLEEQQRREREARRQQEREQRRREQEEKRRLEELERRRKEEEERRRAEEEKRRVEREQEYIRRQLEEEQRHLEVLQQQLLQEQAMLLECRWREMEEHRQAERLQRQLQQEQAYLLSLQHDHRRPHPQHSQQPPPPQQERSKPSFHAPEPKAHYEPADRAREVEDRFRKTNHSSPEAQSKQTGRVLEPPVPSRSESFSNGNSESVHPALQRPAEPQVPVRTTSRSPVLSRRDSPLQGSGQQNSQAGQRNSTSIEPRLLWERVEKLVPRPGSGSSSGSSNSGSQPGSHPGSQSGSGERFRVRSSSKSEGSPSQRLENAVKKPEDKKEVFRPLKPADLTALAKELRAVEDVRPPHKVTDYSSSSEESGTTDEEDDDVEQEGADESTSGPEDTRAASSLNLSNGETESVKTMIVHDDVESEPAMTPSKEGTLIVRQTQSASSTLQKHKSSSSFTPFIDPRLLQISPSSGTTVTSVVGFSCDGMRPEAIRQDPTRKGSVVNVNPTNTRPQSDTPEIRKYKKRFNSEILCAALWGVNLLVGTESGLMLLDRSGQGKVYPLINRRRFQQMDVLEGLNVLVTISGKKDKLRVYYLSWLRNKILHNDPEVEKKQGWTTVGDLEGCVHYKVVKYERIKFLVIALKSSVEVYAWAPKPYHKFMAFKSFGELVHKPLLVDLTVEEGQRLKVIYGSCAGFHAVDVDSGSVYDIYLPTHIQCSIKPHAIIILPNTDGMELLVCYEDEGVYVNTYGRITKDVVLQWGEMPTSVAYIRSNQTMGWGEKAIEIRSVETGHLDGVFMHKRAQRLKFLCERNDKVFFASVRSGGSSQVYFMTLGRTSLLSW

CHO-K1 = test: Counterscreen for antagonists of the orexin 1 receptor (OX1R; HCRTR1): Homogeneous time resolved fluorescence (HTRF)-based cell-based dose response assay to identify antagonists of the parental CHO-K1 cell line. [Related pubchem assays (depositor defined):AID434989, AID435008, AID463079, AID485270, AID492963, AID492964, AID492965, AID493232, AID504699, AID504701]; type: functional; conditions: Cricetulus griseus;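 note: potency for inhibition of ATP-stimulated IP1 production as antagonists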
[13] = Counterscreen for antagonists of the orexin 1 receptor (OX1R; HCRTR1): Fluorescence-based cell-based high throughput dose response assay to identify antagonists of the parental CHO cell line. [Related pubchem assays (depositor defined):AID434989, AID435008, AID463079, AID485270, AID492963, AID492964, AID492965, AID493232, AID504699, AID504701]; type: functional
[14] = target: T4, Orexin/Hypocretin receptor type 1 (Homo sapiens, UniProt O43613); test: Homogeneous Time Resolved Fluorescence (HTRF)-based cell-based high throughput dose response assay for antagonists of the orexin 1 receptor (OX1R; HCRTR1). [Related pubchem assays (depositor defined):AID434989, AID435008, AID463079, AID485270, AID492963, AID492964, AID492965, AID493232, AID504717, AID504718]; type: functional
T4 sequence (O43613 whole entry): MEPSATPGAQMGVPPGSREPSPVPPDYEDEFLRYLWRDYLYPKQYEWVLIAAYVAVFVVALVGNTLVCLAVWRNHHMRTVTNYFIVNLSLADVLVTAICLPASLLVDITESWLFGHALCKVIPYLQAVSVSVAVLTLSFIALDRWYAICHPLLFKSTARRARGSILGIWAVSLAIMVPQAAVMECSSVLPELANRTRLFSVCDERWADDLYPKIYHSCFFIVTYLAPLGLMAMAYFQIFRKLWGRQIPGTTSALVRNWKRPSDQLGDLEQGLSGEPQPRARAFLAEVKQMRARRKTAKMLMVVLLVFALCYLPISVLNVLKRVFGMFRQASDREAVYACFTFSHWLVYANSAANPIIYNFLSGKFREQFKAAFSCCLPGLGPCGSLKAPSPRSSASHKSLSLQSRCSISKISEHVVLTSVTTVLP

[15] = target: T4, Orexin/Hypocretin receptor type 1; test: Fluorescence-based cell-based high throughput dose response assay for antagonists of the orexin 1 receptor (OX1R; HCRTR1). [Related pubchem assays (depositor defined):AID434989, AID435008, AID463079, AID485270, AID492963, AID492964, AID492965, AID493232, AID504717, AID504718]; type: functional
Orexin receptor type 2 [16] = target: T5, Orexin receptor type 2 (Homo sapiens, UniProt O43614); test: Counterscreen assay for antagonists of the orexin 1 receptor (OX1R; HCRTR1): Fluorescence-based cell-based dose response assay for antagonists of the orexin 2 receptor (OX2R; HCRTR2), run by assay provider.; type: functional
T5 sequence (O43614 whole entry): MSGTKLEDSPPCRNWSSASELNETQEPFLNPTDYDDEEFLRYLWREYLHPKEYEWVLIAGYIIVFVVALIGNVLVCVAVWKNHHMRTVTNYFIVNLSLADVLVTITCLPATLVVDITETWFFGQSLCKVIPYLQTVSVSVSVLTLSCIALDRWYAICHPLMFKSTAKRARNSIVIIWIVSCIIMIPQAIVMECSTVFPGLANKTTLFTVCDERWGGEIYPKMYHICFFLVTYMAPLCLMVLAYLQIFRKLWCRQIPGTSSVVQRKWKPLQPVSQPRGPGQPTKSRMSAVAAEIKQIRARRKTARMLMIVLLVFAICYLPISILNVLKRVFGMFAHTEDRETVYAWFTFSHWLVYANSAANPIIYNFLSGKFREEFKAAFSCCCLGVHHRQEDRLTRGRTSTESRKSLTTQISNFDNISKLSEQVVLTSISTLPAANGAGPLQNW

Orexin receptor type 2 [17] = target: T5, Orexin receptor type 2; test: Counterscreen assay for antagonists of the orexin 1 receptor (OX1R; HCRTR1): Homogeneous Time Resolved Fluorescence (HTRF)-based cell-based dose response assay for antagonists of the orexin 2 receptor (OX2R; HCRTR2), run by assay provider.; type: functional
[18] = target: DNA dC->dU-editing enzyme APOBEC-3G (Homo sapiens, UniProt Q9HC16); test: inhibition of APOBEC3G ssDNA deamination – biochemical, fluorescence, single-stranded DNA substrate, SAR follow-up (AID 602136); type: functional; conditions: read-out: IC50_Mean
Chain of DNA dC->dU-editing enzyme APOBEC-3G (Q9HC16 whole entry): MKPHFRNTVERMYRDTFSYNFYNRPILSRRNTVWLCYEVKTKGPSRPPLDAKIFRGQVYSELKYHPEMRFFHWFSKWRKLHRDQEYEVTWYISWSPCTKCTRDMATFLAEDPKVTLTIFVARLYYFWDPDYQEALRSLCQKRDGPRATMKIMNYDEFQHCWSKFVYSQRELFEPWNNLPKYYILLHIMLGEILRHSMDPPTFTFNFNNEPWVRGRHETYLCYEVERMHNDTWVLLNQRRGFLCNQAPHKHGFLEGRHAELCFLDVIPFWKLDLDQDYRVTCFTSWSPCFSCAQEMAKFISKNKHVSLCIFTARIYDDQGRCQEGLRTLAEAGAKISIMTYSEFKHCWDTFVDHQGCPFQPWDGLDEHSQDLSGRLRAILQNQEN

[19] = target: DNA dC->dU-editing enzyme APOBEC-3A (Homo sapiens, UniProt P31941); test: SAR analysis of small molecule inhibitors of APOBEC3A DNA Deaminase via a fluorescence-based single-stranded DNA deaminase assay.; type: functional; conditions: read-out: IC50_Mean
Chain of DNA dC->dU-editing enzyme APOBEC-3A (P31941 whole entry): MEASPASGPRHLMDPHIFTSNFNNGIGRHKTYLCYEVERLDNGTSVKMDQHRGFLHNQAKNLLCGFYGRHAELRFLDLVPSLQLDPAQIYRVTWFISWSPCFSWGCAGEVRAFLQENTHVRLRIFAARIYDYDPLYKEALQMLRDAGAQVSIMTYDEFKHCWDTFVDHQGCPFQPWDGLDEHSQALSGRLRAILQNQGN

[20] = target: Platelet-activating factor acetylhydrolase (Mus musculus, UniProt Q60963); test: Late stage assay provider results from the probe development effort to identify inhibitors of plasma platelet activating factor acetylhydrolase (pPAFAH): fluorescence-based dose response biochemical gel-based competitive Activity-Based Protein Profiling (ABPP) assay for HTS compounds. [Related pubchem assays (depositor defined):AID463082, AID463092, AID463230, AID588474]; type: cell-free
Chain of Platelet-activating factor acetylhydrolase (Q60963 whole entry): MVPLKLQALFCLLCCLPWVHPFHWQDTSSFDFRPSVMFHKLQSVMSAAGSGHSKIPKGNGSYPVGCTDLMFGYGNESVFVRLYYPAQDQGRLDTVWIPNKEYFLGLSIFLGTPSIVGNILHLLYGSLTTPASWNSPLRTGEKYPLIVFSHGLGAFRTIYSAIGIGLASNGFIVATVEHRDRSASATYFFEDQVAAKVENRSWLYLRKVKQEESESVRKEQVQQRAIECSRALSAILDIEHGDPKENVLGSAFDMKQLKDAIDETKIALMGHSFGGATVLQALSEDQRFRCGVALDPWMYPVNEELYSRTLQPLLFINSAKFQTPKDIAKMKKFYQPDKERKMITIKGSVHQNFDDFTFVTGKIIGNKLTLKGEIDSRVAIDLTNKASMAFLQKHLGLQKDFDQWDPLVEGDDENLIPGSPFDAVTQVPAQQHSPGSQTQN

[21] = target: Eukaryotic elongation factor 2 kinase (Homo sapiens, UniProt O00418); type: functional
Chain of Eukaryotic elongation factor 2 kinase (O00418 whole entry, canonical isoform): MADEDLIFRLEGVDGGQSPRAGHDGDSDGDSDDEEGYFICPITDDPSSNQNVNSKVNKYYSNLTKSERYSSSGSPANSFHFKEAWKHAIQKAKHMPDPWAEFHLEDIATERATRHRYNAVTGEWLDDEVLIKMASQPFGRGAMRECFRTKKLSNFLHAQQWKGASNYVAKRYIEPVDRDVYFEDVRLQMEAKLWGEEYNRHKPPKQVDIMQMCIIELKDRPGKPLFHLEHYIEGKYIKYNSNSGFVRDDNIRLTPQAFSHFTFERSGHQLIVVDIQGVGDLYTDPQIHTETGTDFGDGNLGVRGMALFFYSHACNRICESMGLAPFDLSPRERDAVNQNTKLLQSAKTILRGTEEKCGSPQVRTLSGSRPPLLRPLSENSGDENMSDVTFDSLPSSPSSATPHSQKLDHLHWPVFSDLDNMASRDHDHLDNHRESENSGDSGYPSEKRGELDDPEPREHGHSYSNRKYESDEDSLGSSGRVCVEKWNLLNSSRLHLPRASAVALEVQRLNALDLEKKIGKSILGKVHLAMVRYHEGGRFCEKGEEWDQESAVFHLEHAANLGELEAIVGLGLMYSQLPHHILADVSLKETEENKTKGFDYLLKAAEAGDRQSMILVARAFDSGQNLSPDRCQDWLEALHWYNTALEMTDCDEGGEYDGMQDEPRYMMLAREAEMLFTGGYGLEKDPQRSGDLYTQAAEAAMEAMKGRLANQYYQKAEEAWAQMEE

[22] = target: Casein kinase I isoform delta (Homo sapiens, UniProt P48730); type: functional;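 note: measured as one member (CSNK1D) of a kinome panel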
Chain of Casein kinase I isoform delta (P48730 whole entry, canonical isoform): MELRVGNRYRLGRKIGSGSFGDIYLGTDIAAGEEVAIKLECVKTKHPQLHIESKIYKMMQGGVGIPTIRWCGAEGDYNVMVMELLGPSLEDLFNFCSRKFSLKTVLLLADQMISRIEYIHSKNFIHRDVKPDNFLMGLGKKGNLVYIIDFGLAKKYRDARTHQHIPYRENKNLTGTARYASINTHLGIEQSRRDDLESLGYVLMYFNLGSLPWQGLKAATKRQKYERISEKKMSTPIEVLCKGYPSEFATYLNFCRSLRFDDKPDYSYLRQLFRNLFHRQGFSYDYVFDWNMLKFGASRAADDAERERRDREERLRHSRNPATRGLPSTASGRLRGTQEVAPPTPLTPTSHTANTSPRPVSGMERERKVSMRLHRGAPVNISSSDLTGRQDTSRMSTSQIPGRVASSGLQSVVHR

Structure (SMILES): CCc1ccc(S(=O)(=O)/N=C2\C=C(SC3=NCN=N3)C(=O)c3ccccc32)cc1
- AC50 [1]: 44.5 µM (active)
- AC50 [2]: 41.5 µM (active)

Structure (SMILES): COc1cc2c(cc1OC)-c1cc(NCc3ccccn3)nc(=O)n1CC2
- IC50 [3]: 9.21 µM (active)
- IC50 (Hexokinase HKDC1 [4]): 8.47 µM (active)
- IC50 (Hexokinase-1 [5]): > 80 µM (inactive)
- IC50 (Hexokinase HKDC1 [6]): > 80 µM (inactive) and 12.1 µM (active)
- IC50 (Hexokinase-1 [7]): > 80 µM (inactive)
- IC50 (Hexokinase HKDC1 [8]): 12.4 µM (active)
- IC50 (Hexokinase HKDC1 [9]): > 80 µM (inactive) and 11.7 µM (active)
- IC50 [10]: 14.7 µM (inactive)
- AC50 (Cytochrome P450 1A2): 35.5 µM (inconclusive)
- AC50 (Cytochrome P450 2C9): 7.94 µM (inconclusive)

Structure (SMILES): Clc1ccc(OCC2CN(Cc3c[nH]c4ncccc34)CCO2)cc1 (stereo not given)
- Ki [11]: 2 µM (active)
- Ki [12]: 1.26 µM (active)

Structure (SMILES): Cc1cccc(OCCSc2nc3ccccc3n2CCC(=O)O)c1
- IC50 (CHO-K1): > 66.2 µM (inactive)
- IC50 [13]: > 49.8 µM (inactive)
- IC50 [14]: 1.57 µM (active)
- IC50 [15]: 19.6 µM (inactive)
- IC50 (Orexin receptor type 2 [16]): 88.2 µM (inactive)
- IC50 (Orexin receptor type 2 [17]): > 50 µM (inactive)

Structure (SMILES): Cc1nnc(NC(=O)C2(c3ccc(F)cc3)CCC2)s1
- IC50 [18]: > 99 µM (inactive)
- IC50 [19]: > 99 µM (inactive)

Structure (SMILES): O=C(Oc1ccc(-c2ccccc2)cc1)N1CCOCC1
- IC50 [20]: 0.469 µM (active)

Structure (SMILES): CNC1CC2OC(C)(C1OC)n1c3ccccc3c3c4c(c5c6ccccc6n2c5c31)C(=O)NC4 (stereo not given)
- Ki [21]: > 1 µM (inactive)
- Ki [22]: > 2.51 µM (inactive)
